# US11407740B2 (priority 2018, dated 2022)
# Tested on: E. coli
# Assay: Bacterial susceptibility testing, MIC by broth microdilution (CLSI)
# Settings: Escherichia coli, read-out: E. coli MIC, broth microdilution, 35° C., 18-24 h
# Experimental: Minimal inhibitory concentrations (MIC) were determined by the broth microdilution method in accordance with the Clinical and Laboratory Standards Institute (CLSI) guidelines. In brief, organism suspensions were adjusted to a 0.5 McFarland standard to yield a final inoculum between 3×10^3 and 7×10^5 colony-forming units (CFU)/mL. Drug dilutions and inocula were made in sterile, cation adjusted Mueller-Hinton Broth (Beckton Dickinson). An inoculum volume of 100 μL was added to wells containing 100 μL of broth with 2-fold serial dilutions of drug.
row,Compound,MIC
1,CC(F)CNCC(Cc1nc[nH]c(=O)c1O)c1ccc(C#Cc2ccc(CN3CCOCC3)cc2)cc1 (centres unmarked) [Compound 74],< 1 µg/mL
2,O=c1[nH]cnc(CC(CN[C@H]2C[C@@H](F)C2)c2ccc(C#Cc3ccc(CN4CCOCC4)cc3)cc2)c1O (some centres unmarked) [Compound 75],< 1 µg/mL
3,O=c1[nH]cnc(CC(CN[C@H]2C[C@H](F)C2)c2ccc(C#Cc3ccc(CN4CCOCC4)cc3)cc2)c1O (some centres unmarked) [Compound 78],1 to 8 µg/mL
4,C[C@@H](CF)NCC(Cc1nc[nH]c(=O)c1O)c1ccc(C#Cc2ccc(CN3CC(C#N)C3)cc2)cc1 (some centres unmarked) [Compound 81],< 1 µg/mL
5,C[C@H](CF)NCC(Cc1nc[nH]c(=O)c1O)c1ccc(C#Cc2ccc(CN3CC(C#N)C3)cc2)cc1 (some centres unmarked) [Compound 83],< 1 µg/mL
6,CC(CC#N)NCC(Cc1nc[nH]c(=O)c1O)c1ccc(C#Cc2ccc(CN3CCOCC3)cc2)cc1 (centres unmarked) [Compound 97],< 1 µg/mL
7,COC1CN(Cc2ccc(C#Cc3ccc(C(CNCC(C)F)Cc4nc[nH]c(=O)c4O)cc3)cc2)C1 (centres unmarked) [Compound 101],< 1 µg/mL
8,N#CC1CN(CC(Cc2nc[nH]c(=O)c2O)c2ccc(C#Cc3ccc(CN4CCOCC4)cc3)cc2)C1 (centres unmarked) [Compound 102],< 1 µg/mL
9,O=c1[nH]cnc(CC(CNCCCF)c2ccc(C#Cc3ccc(CN4CCOCC4)cc3)cc2)c1O (centres unmarked) [Compound 105],< 1 µg/mL
10,O=c1[nH]cnc(CC(CNC2CC(F)(F)C2)c2ccc(C#Cc3ccc(CN4CCOCC4)cc3)cc2)c1O (centres unmarked) [Compound 112],< 1 µg/mL
11,O=c1[nH]cnc(CC(CNCC(F)F)c2ccc(C#Cc3ccc(CN4CCOCC4)cc3)cc2)c1O (centres unmarked) [Compound 115],< 1 µg/mL
12,O=c1[nH]cnc(CC(CNC2CC2)c2ccc(C#Cc3ccc(CN4CCOCC4)cc3)cc2)c1O (centres unmarked) [Compound 118],< 1 µg/mL
13,COC1CN(Cc2ccc(C#Cc3ccc(C(Cc4nc[nH]c(=O)c4O)CN4C(=O)OC[C@@H]4C)cc3)cc2)C1 (some centres unmarked) [Compound 121],1 to 8 µg/mL
14,CS(=O)(=O)CCNCC(Cc1nc[nH]c(=O)c1O)c1ccc(C#Cc2ccc(CN3CCOCC3)cc2)cc1 (centres unmarked) [Compound 128],1 to 8 µg/mL
15,O=c1[nH]cnc(CC(CNCCO)c2ccc(C#Cc3ccc(CN4CCOCC4)cc3)cc2)c1O (centres unmarked) [Compound 129],1 to 8 µg/mL
16,N#CCCNCC(Cc1nc[nH]c(=O)c1O)c1ccc(C#Cc2ccc(CN3CCOCC3)cc2)cc1 (centres unmarked) [Compound 130],1 to 8 µg/mL
17,CC(NCC(F)F)C(Cc1nc[nH]c(=O)c1O)c1ccc(C#Cc2ccc(CN3CCOCC3)cc2)cc1 (centres unmarked) [Compound 131],1 to 8 µg/mL
18,N#CCCNCC(Cc1nc[nH]c(=O)c1O)c1ccc(C#Cc2ccc(CN3CC(CC#N)C3)cc2)cc1 (centres unmarked) [Compound 134],8 to 32 µg/mL
19,CC(F)CNCC(Cc1nc[nH]c(=O)c1O)c1ccc(C#Cc2ccc(CCN3CCOCC3)cc2)cc1 (centres unmarked) [Compound 138],1 to 8 µg/mL
20,O=c1[nH]cnc(CC(NCCCF)c2ccc(C#Cc3ccc(CN4CCOCC4)cc3)cc2)c1O (centres unmarked) [Compound 139],< 1 µg/mL
21,CC(CF)NC(Cc1nc[nH]c(=O)c1O)c1ccc(C#Cc2ccc(CN3CCOCC3)cc2)cc1 (centres unmarked) [Compound 141],< 1 µg/mL
22,N=S1(=O)CCC(NCc2ccc(C#Cc3ccc(C(CO)Cc4nc[nH]c(=O)c4O)cc3)cc2)CC1 (centres unmarked) [Compound 149],1 to 8 µg/mL
23,O=C(CO)N1CCN(Cc2ccc(C#Cc3ccc(C(CO)Cc4nc[nH]c(=O)c4O)cc3)cc2)CC1 (centres unmarked) [Compound 152],< 1 µg/mL
24,O=C(C1CC1)N1CC[C@@H](NCc2ccc(C#Cc3ccc(C(CO)Cc4nc[nH]c(=O)c4O)cc3)cc2)C1 (some centres unmarked) [Compound 153],< 1 µg/mL
25,O=C(CO)N1CCC(NCc2ccc(C#Cc3ccc(C(CO)Cc4nc[nH]c(=O)c4O)cc3)cc2)CC1 (centres unmarked) [Compound 157],1 to 8 µg/mL
26,COCCNCC(Cc1nc[nH]c(=O)c1O)c1ccc(C#Cc2ccc(CN3CCOCC3)cc2)cc1 (centres unmarked) [Compound 164],1 to 8 µg/mL
27,O=c1[nH]cnc(CC(NCCCCl)c2ccc(C#Cc3ccc(CN4CCOCC4)cc3)cc2)c1O (centres unmarked) [Compound 172],< 1 µg/mL
28,COC1CCN(Cc2ccc(C#Cc3ccc(C(N)Cc4nc[nH]c(=O)c4O)cc3)cc2)CC1 (centres unmarked) [Compound 174],< 1 µg/mL

row,Compound,MIC
1,COC1CN(Cc2ccc(C#Cc3ccc(C(Cc4nc[nH]c(=O)c4O)CN4CC(OC)C4)cc3)cc2)C1 (centres unmarked) [Compound 175],1 to 8 µg/mL
2,O=c1[nH]cnc(CC(CN2CCC2)c2ccc(C#Cc3ccc(CN4CCOCC4)cc3)cc2)c1O (centres unmarked) [Compound 177],< 1 µg/mL
3,O=c1[nH]cnc(CC(CNCc2ccn[nH]2)c2ccc(C#Cc3ccc(CN4CCOCC4)cc3)cc2)c1O (centres unmarked) [Compound 184],1 to 8 µg/mL
4,COCC(Cc1nc[nH]c(=O)c1O)c1ccc(C#Cc2ccc(CN3CCOCC3)cc2)cc1 (centres unmarked) [Compound 190],< 1 µg/mL
5,O=C(NCC(F)F)C(Cc1nc[nH]c(=O)c1O)N1Cc2cc(C#Cc3ccc(CN4CCOCC4)cc3)cn2C1=O (centres unmarked) [Compound 191],< 1 µg/mL
6,COC(=O)C(Cc1nc[nH]c(=O)c1O)N1Cc2cc(C#Cc3ccc(CN4CCOCC4)cc3)cn2C1=O (centres unmarked) [Compound 192],1 to 8 µg/mL
7,O=C1N(C(CO)Cc2nc[nH]c(=O)c2O)Cc2cc(C#Cc3ccc(CN4CCOCC4)cc3)cn21 (centres unmarked) [Compound 193],1 to 8 µg/mL
8,O=c1[nH]cnc(CC(CO)c2ccc(C#Cc3cnn(CC4CCOCC4)c3)cc2)c1O (centres unmarked) [Compound 194],1 to 8 µg/mL
9,O=c1[nH]cnc(CC(CO)c2ccc(C#Cc3ccc(CN4CCOCC4)nc3)cc2)c1O (centres unmarked) [Compound 195],1 to 8 µg/mL
10,O=c1[nH]cnc(CC(CO)c2ccc(C#Cc3ccc(CN4CCOCC4)cc3)cn2)c1O (centres unmarked) [Compound 196],1 to 8 µg/mL
11,Cn1cc(C#Cc2ccc(C(CO)Cc3nc[nH]c(=O)c3O)cc2)cn1 (centres unmarked) [Compound 197],8 to 32 µg/mL
12,Cn1cc(C#Cc2ccc(C(CNCCF)Cc3nc[nH]c(=O)c3O)cc2)cn1 (centres unmarked) [Compound 199],1 to 8 µg/mL
13,Cn1cc(C#Cc2ccc(C(N)Cc3nc[nH]c(=O)c3O)cc2)cn1 (centres unmarked) [Compound 200],1 to 8 µg/mL
14,O=c1[nH]cnc(CC(CO)c2ccc(C#Cc3cnn(C4CCOCC4)c3)cc2)c1O (centres unmarked) [Compound 202],1 to 8 µg/mL
15,O=C1N(C(CO)Cc2nc[nH]c(=O)c2O)Cc2cc(-c3ccc(CCN4CCOCC4)cc3)cn21 (centres unmarked) [Compound 203],1 to 8 µg/mL
16,O=c1[nH]cnc(C[C@H](CO)c2ccc(C#C[C@H]3CC[C@H](CN4CCOCC4)CC3)cc2)c1O [Compound 204],8 to 32 µg/mL
17,O=c1[nH]cnc(CC(CNCCF)c2ccc(C#Cc3cnn(C4CCOCC4)c3)cc2)c1O (centres unmarked) [Compound 205],1 to 8 µg/mL
18,O=c1[nH]cnc(CC(CNCCF)c2ccc(C#Cc3cnn(CC4CCOCC4)c3)cc2)c1O (centres unmarked) [Compound 206],1 to 8 µg/mL
19,O=c1[nH]cnc(CC(CNCCF)c2ccc(C#Cc3ccn4cncc4c3)cc2)c1O (centres unmarked) [Compound 207],1 to 8 µg/mL
20,O=c1[nH]cnc(CC(CNCCF)c2ccc(C#Cc3cnn(C4COC4)c3)cc2)c1O (centres unmarked) [Compound 208],1 to 8 µg/mL
21,O=c1[nH]cnc(CC2CCc3cc(C#Cc4ccc(CN5CCOCC5)cc4)ccc32)c1O (centres unmarked) [Compound 209],1 to 8 µg/mL
22,O=C1NC(Cc2nc[nH]c(=O)c2O)c2ccc(C#Cc3ccc(CN4CCOCC4)cc3)cc21 (centres unmarked) [Compound 210],1 to 8 µg/mL
23,O=c1[nH]cnc(CC(CO)n2ccc(C#Cc3ccc(CN4CCOCC4)cc3)cc2=O)c1O (centres unmarked) [Compound 211],8 to 32 µg/mL
24,O=C(O)C(Cc1nc[nH]c(=O)c1O)N1Cc2cc(-c3ccc(CCN4CCOCC4)cc3)cn2C1=O (centres unmarked) [Compound 212],> 32 µg/mL
25,NC(Cc1nc[nH]c(=O)c1O)c1ccc(-c2ccc(CCN3CCOCC3)cc2)cc1 (centres unmarked) [Compound 214],8 to 32 µg/mL
26,COC1CN(Cc2ccc(C#Cc3ccc(C(CNC(C)(C)CF)Cc4nc[nH]c(=O)c4O)cc3)cc2)C1 (centres unmarked) [Compound 221],< 1 µg/mL
27,COC1CN(Cc2ccc(C#Cc3ccc(C(CNC4CC4)Cc4nc[nH]c(=O)c4O)cc3)cc2)C1 (centres unmarked) [Compound 223],< 1 µg/mL

# Same assay, conditions: broth microdilution, 35° C., 18-24 h
row,Compound,E. coli MIC
1,O=c1[nH]cnc(CC(CN[C@H]2C[C@@H](F)C2)c2ccc(C#Cc3ccc(CN4CCOCC4)cc3)cc2)c1O (some centres unmarked) [Compound 76],A (A: ≤1 μg/mL)
2,O=c1[nH]cnc(CC(CN[C@H]2C[C@@H](F)C2)c2ccc(C#Cc3ccc(CN4CCOCC4)cc3)cc2)c1O (some centres unmarked) [Compound 77],B (B: >1 μg/mL to ≤8.0 μg/mL)
3,O=c1[nH]cnc(CC(CN[C@H]2C[C@H](F)C2)c2ccc(C#Cc3ccc(CN4CCOCC4)cc3)cc2)c1O (some centres unmarked) [Compound 79],A (A: ≤1 μg/mL)
4,O=c1[nH]cnc(CC(CN[C@H]2C[C@H](F)C2)c2ccc(C#Cc3ccc(CN4CCOCC4)cc3)cc2)c1O (some centres unmarked) [Compound 80],A (A: ≤1 μg/mL)
5,O=c1[nH]cnc(CC(CNCCCF)c2ccc(C#Cc3ccc(CN4CCOCC4)cc3)cc2)c1O (centres unmarked) [Compound 106],B (B: >1 μg/mL to ≤8.0 μg/mL)
6,O=c1[nH]cnc(CC(CNCCCF)c2ccc(C#Cc3ccc(CN4CCOCC4)cc3)cc2)c1O (centres unmarked) [Compound 107],A (A: ≤1 μg/mL)
7,O=c1[nH]cnc(CC(CNC2CC(F)(F)C2)c2ccc(C#Cc3ccc(CN4CCOCC4)cc3)cc2)c1O (centres unmarked) [Compound 113],B (B: >1 μg/mL to ≤8.0 μg/mL)
8,O=c1[nH]cnc(CC(CNC2CC(F)(F)C2)c2ccc(C#Cc3ccc(CN4CCOCC4)cc3)cc2)c1O (centres unmarked) [Compound 114],B (B: >1 μg/mL to ≤8.0 μg/mL)
9,O=c1[nH]cnc(CC(CNC2CC2)c2ccc(C#Cc3ccc(CN4CCOCC4)cc3)cc2)c1O (centres unmarked) [Compound 119],A (A: ≤1 μg/mL)
10,O=c1[nH]cnc(CC(CNC2CC2)c2ccc(C#Cc3ccc(CN4CCOCC4)cc3)cc2)c1O (centres unmarked) [Compound 120],B (B: >1 μg/mL to ≤8.0 μg/mL)
11,COC1CN(Cc2ccc(C#Cc3ccc(C(Cc4nc[nH]c(=O)c4O)CN4C(=O)OC[C@@H]4C)cc3)cc2)C1 (some centres unmarked) [Compound 122],A (A: ≤1 μg/mL)
12,COC1CN(Cc2ccc(C#Cc3ccc(C(Cc4nc[nH]c(=O)c4O)CN4CC(F)C4)cc3)cc2)C1 (centres unmarked) [Compound 159],A (A: ≤1 μg/mL)
13,COC1CN(Cc2ccc(C#Cc3ccc(C(Cc4nc[nH]c(=O)c4O)CN4CC(F)C4)cc3)cc2)C1 (centres unmarked) [Compound 160],A (A: ≤1 μg/mL)
14,COC1CN(Cc2ccc(C#Cc3ccc(C(Cc4nc[nH]c(=O)c4O)CN4CC(OC)C4)cc3)cc2)C1 (centres unmarked) [Compound 176],A (A: ≤1 μg/mL)
15,COC1CN(Cc2ccc(C#Cc3ccc(C(Cc4nc[nH]c(=O)c4O)CN4CC(F)C4)cc3)cc2)C1 (centres unmarked) [Compound 180],C (C: >8.0 μg/mL to ≤32 μg/mL)
16,COC1CN(Cc2ccc(C#Cc3ccc(C(Cc4nc[nH]c(=O)c4O)CN4CC(F)C4)cc3)cc2)C1 (centres unmarked) [Compound 181],B (B: >1 μg/mL to ≤8.0 μg/mL)
